Experimental data taken from patent publication US20180147134A1, “ANTI-CELL SENESCENCE COSMETIC COMPOSITION, USE OF CASEARIA SYLVESTRIS AND/OR HIMENAEA COURBARIL, METHOD OF PREVENTING CELL SENESCENCE AND A METHOD FOR MODULATING THE EXPRESSION OF B-GALACTOSIDASE, P16, P21 AND/OR IL-8” (Natura Cosméticos S.A., priority 2016, published 2018).

Assays:
Assay type in all cases: cell-based
transcription factor p16 = assay: in vitro model of induced cell senescence: expression of p16; conditions: protection of the cells with agent
Excerpt: (§1) An in vitro model of induced early cell aging (cell senescence) was developed and used to evaluate whether certain cosmetic ingredients can protect or delay molecular mechanisms that lead to aging of skin cells or to loss of functional competence (loss of cellular vitality).

[1] = system: cell senescence-associated lysosomal b-galactosidase; assay: in vitro model of induced early cell aging (cell senescence), UVA/UVB: senescence-associated lysosomal b-galactosidase (flow cytometry and cytochemical marking); conditions: in the presence of agent
Excerpt: as §1

[2] = system: inflammatory cytokine IL-8; assay: in vitro model of induced cell senescence: expression of IL-8; conditions: UVA + agent
Excerpt: as §1

transcription factor p21 = assay: in vitro model of induced cell senescence: expression of p21; conditions: protection of the cells with agent
Excerpt: as §1

SMILES	induced expression of p16 (transcription factor p16)	appearance of b-galactosidase marking induced by UV [1]	expression of IL-8 [2]	induced expression of p21 (transcription factor p21)
O=C(O)/C=C/c1ccc(O)c(O)c1 [caffeic acid]	reduces	reduced	reduced	–
Cc1c(C)c2c(c(C)c1O)CCC(C)(C(=O)O)O2 (stereo not shown) [trolox]	reduces	reduced	reduced	reduces
